According to publication PMC10622552, “Engineering a scalable and orthogonal platform for synthetic communication in mammalian cells” (Nature Communications, 2023):

Experiments:
[1] = system: HEK293S GnTi- TetR sender cells; test: Flow cytometry of EmGFP-positive sender cells with and without doxycycline; type: cell-based, human; details: HEK293S GnTi- TetR senders prior to sorting; with dox
Description: HEK293T cells (ATCC® CRL3216™) or human embryonic kidney 293 S lacking N-acetylglucosaminyltransferase I and expressing the Tet repressor protein (HEK293S GnTI^- TetR; obtained from the group of N. Callewaert at the VIB-UGent Center for Medical Biotechnology; nico.callewaert@ugent.vib.be)[75] were plated in 24-well plates (Greiner) and upon reaching 10-20% confluency were transduced with lentivirus harboring the SUMO-tagged A’-A’ peptide with linker I2 (Supplementary Fig. S26) or SUMO-tagged A’-Γ or Γ’-A’ peptide with linker l4 (Supplementary Fig. S31), under the control of the major immediate–early (MIE) human cytomegalovirus (CMV) enhancer and promoter and two TetO operator sequences[69] followed by an internal ribosome entry site (IRES) from encephalomyocarditis virus (EMCV) controlling the expression of an emerald green fluorescent protein (EmGFP). In total, 50–100 μL lentivirus was added to the cells, containing transduction medium (DMEM (41966; Thermo Fisher Scientific) supplemented with 10% (v/v) heat-inactivated FBS (S-FBS-SA-015; Serana)). […] Cells were bulk-sorted or sorted as single cells for EmGFP by fluorescence-activated cell sorting (FACS) in 1:1 conditioned to growth media (conditioned medium being medium that has been in contact with cells for 24 hours and subsequently harvested and filtered with a 0.45-μm syringe filter (Merck)). […]

[2] = system: A-typeJAK/STAT receptor in HEK293T receiver cells; test: Sender-receiver co-culture, SEAP activity (Fig. 6b, S30); type: cell-based, human; details: 1.5 × 10^5 receivers + 6 × 10^5 senders; 1 μg/mL dox; 48 h, 37 °C; independent triplicates
Description: In detail, we observe a 6.6-fold increase in SEAP activity for receiver cells cultured with senders in the presence of dox compared to a co-culture with senders in the absence of the inducer and 9.7-fold increase compared to receiver cells cultured with control 293S GnTi^- cells; a response that is similar to previously engineered paracrine synthetic communication systems[31],[33],[34],[36],[37],[42], ranging from 1.5- to 20-fold in performance. To understand the origin of this activation level, we plated 4.5 × 10^5 sender cells incubated with doxycycline and measured 0.14 μM of secreted SUMO-tagged A’-A’ dipeptide after 48 h, by means of western blotting using an anti-Smt3 antibody (“Methods” and Supplementary Fig. S29). […]
SEAP concentration in cell culture medium was quantified in terms of absorbance increase due to para-nitrophenylphosphate (pNPP), using a commercially available SEAP assay kit (NBP2-25285, Novus Biologicals). […] Absorbance values were measured at 405 nm, at a controlled temperature of 25 °C, for 60 minutes, using a Tecan Spark 10 M plate reader (Tecan). […] Absorbance units are converted to amount of substrate conversion and SEAP activity is calculated from the slope of the time trace and expressed in units per litre (U/L). […]

SMILES: C[C@H]1c2cccc(O)c2C(=O)C2=C(O)[C@]3(O)C(=O)C(C(N)=O)=C(O)[C@@H](N(C)C)[C@@H]3[C@@H](O)[C@@H]21 [doxycycline]
- EmGFP positive cells upon doxycycline, prior to sorting [1]: 55.0%
- fold increase in SEAP activity vs co-culture without inducer [2]: 6.6 fold
- fold increase in SEAP activity vs receivers with control 293S GnTi- cells [2]: 9.7 fold
